The results in this text go back to patent publication US20250195530A1, “POLQ INHIBITORS” (ASTRAZENECA AB, priority 2022, published 2025).

Like-named read-outs stand apart in the source and are kept apart here.

Experiment [1] has as its system DLD-1 BRCA2−/− cells. Kind of experiment: Homologous recombination synthetic lethal inhibition of proliferation, DLD-1 BRCA2-/- (Cell Titre Glo 3D). Format: cell-based. The note with it: Homo sapiens. Summed up: (§1)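 Cells are seeded in RPMI 1640 (phenol red free, 10% FBS, GlutaMAX) onto pre-dosed compound (10 μM to 0.51 nM, three-fold). Plates are incubated at 37 °C, and medium plus compound are refreshed on day 6. Viability is read by CellTiter-Glo 3D at day 7 (DLD-1) or day 12 (DLD-1 BRCA2−/−), and the IC50 is fitted.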

Experiment [2] has as its system DLD-1 cells. Kind of experiment: Inhibition of proliferation, DLD-1 BRCA2 wt control (Cell Titre Glo 3D). The format is cell-based. The note with it: Homo sapiens. Summed up: as §1
Where [3] appears, read: DLD-1, first proliferation column (c5), DLD-1 BRCA2-/-, read-out: POLQ PD Prolif Lumin (converted).
The mark [4] stands for this setting: DLD-1, second proliferation column (c6), DLD-1 BRCA2 wt control, read-out: POLQ PD Prolif Lumin (converted).
[5] abbreviates: DLD-1, 288 h, DLD-1 BRCA2−/−, 12 days, Cell Titre Glo 3D, read-out: POLQ PD Prolif Lumin BRCA2 −/− Mean pIC50 (converted).
Where [6] appears, read: DLD-1, 168 h, DLD-1 (BRCA2 wt control), 7 days, Cell Titre Glo 3D, read-out: POLQ PD Prolif Lumin DLD1 Mean pIC50 (converted).
[7] abbreviates: DLD-1, 288 h, DLD-1 BRCA2−/− cells, 12 days, read-out: POLQ PD Prolif Lumin BRCA2 −/− mean pIC50 (converted).
The mark [8] stands for this setting: DLD-1, 168 h, DLD-1 BRCA2 wt cells, 7 days, read-out: POLQ PD Prolif Lumin DLD1 mean pIC50 (converted).
The mark [9] stands for this setting: DLD-1, DLD-1 BRCA2-/- proliferation, column head only partly shown, read-out: POLQ PD Prolif Lumin (converted).
[10] abbreviates: DLD-1, DLD-1 BRCA2 wt control proliferation, column head only partly shown, read-out: POLQ PD Prolif Lumin (converted).
Setting [11] is: DLD-1, DLD-1 BRCA2 −/− cells, mean, read-out: POLQ PD Prolif Lumin BRCA2 −/− mean pIC50 (converted).
Setting [12] is: DLD-1, DLD1 BRCA2 wt cells, mean, read-out: POLQ PD Prolif Lumin DLD1 mean PIC50 (converted).

As for `CNC(=O)COc1cccc(-c2nc3c(OC4(C)CC4)ncnc3n2Cc2cc(C)ccn2)c1Cl` [Example T120, 2-(2-chloro-3-(6-(1-methylcyclopropoxy)-9-((4-methylpyridin-2-yl)methyl)-9H-purin-8-yl)phenoxy)-N-methylacetamide], the figures for the IC50 in experiment [1] (setting [3]) and in experiment [2] (setting [4]) were 158 nM and over 6310 nM, respectively.

Consider `CC1(Oc2ncnc3c2nc(-c2ccc(/C=C/C(=O)O)cc2Cl)n3Cc2cccc(Cl)c2)CC1` [Example 31, (E)-3-(3-Chloro-4-(9-(3-chlorobenzyl)-6-(1-methylcyclopropoxy)-9H-purin-8-yl)phenyl)acrylic acid], for which the IC50 was 398 nM in experiment [1] (setting [5]) and over 10000 nM in experiment [2] (setting [6]).

`CC1(Oc2ncnc3c2nc(-c2ccc(OCCN4CCNCC4=O)cc2Cl)n3Cc2ccccc2)CC1` [Example M5, 1-(2-(4-(9-benzyl-6-(1-methylcyclopropoxy)-9H-purin-8-yl)-3-chlorophenoxy)ethyl)piperazin-2-one]: the IC50 in experiment [1] (setting [7]) was 100 nM; in experiment [2] (setting [8]), over 10000 nM.

As for `Cc1cc(OCCN2CCNCC2)ccc1-c1nc2c(OC(C)C)ncnc2n1Cc1ccccc1` [Example B2, 9-benzyl-6-isopropoxy-8-(2-methyl-4-(2-(piperazin-1-yl)ethoxy)phenyl)-9H-purine], the IC50 in experiment [1] (setting [7]) is 501 nM; in experiment [2] (setting [8]) it was 6310 nM.

`CN(C)CCCOc1ccc(-c2nc3c(OC4(C)CC4)ncnc3n2Cc2cc(Cl)ccn2)c(F)c1` [Example T231, 3-(4-(9-((4-chloropyridin-2-yl)methyl)-6-(1-methylcyclopropoxy)-9H-purin-8-yl)-3-fluorophenoxy)-N,N-dimethylpropan-1-amine]: the IC50 was 251 nM in experiment [1] (setting [9]) and over 10000 nM in experiment [2] (setting [10]).

Regarding `Cc1ccnc(Cn2c(-c3ccc(OCC(C)(C)O)cc3Cl)nc3c(OC4(C)CC4)ncnc32)c1` [Example 45, 1-(3-Chloro-4-(6-(1-methylcyclopropoxy)-9-((4-methylpyridin-2-yl)methyl)-9H-purin-8-yl)phenoxy)-2-methylpropan-2-ol], the IC50 in experiment [1] (setting [5]) is 200 nM; in experiment [2] (setting [6]), over 10000 nM.

Consider `CC1(Oc2ccnc3c2nc(-c2ccc(OCCN4CCNCC4)cc2Cl)n3Cc2ccccc2)CCC1` [Example P4, 3-benzyl-2-(2-chloro-4-(2-(piperazin-1-yl)ethoxy)phenyl)-7-(1-methylcyclobutoxy)-3H-imidazo[4,5-b]pyridine], for which the IC50 in experiment [1] (setting [7]) was 316 nM; in experiment [2] (setting [8]), 1260 nM.

Regarding `CC1(Oc2ncnc3c2nc(-c2ccc(OCCN4C5CNCC4C5)cc2Cl)n3Cc2ccccc2)CC1` [Example R15, 6-(2-(4-(9-benzyl-6-(1-methylcyclopropoxy)-9H-purin-8-yl)-3-chlorophenoxy)ethyl)-3,6-diazabicyclo[3.1.1]heptane], the IC50 in experiment [1] (setting [7]) is 501 nM; in experiment [2] (setting [8]), 5010 nM.

Consider `CC1(Oc2ncnc3c2nc(-c2ccc(OCc4nc(C(=O)O)cs4)cc2Cl)n3Cc2cccc(Cl)c2)CC1` [Example T250, 2-((3-chloro-4-(9-(3-chlorobenzyl)-6-(1-methylcyclopropoxy)-9H-purin-8-yl)phenoxy)methyl)thiazole-4-carboxylic acid], for which the IC50 in experiment [1] (setting [9]) is 3160 nM; in experiment [2] (setting [10]), over 10000 nM.

As for `CC(=O)N1CC(Oc2ccc(-c3nc4c(OC5(C)CC5)ncnc4n3Cc3cc(C)ccn3)c(Cl)c2)C1` [Example 40, 1-(3-(3-Chloro-4-(6-(1-methylcyclopropoxy)-9-((4-methylpyridin-2-yl)methyl)-9H-purin-8-yl)phenoxy)azetidin-1-yl)ethan-1-one], the IC50 is 158 nM in experiment [1] (setting [5]) and over 10000 nM in experiment [2] (setting [6]).

For `CC1(Oc2ncnc3c2nc(-c2ccc(OCCN4CC(O)C4)cc2Cl)n3Cc2cc(Cl)ccn2)CC1` [Example T206, 1-(2-(3-chloro-4-(9-((4-chloropyridin-2-yl)methyl)-6-(1-methylcyclopropoxy)-9H-purin-8-yl)phenoxy)ethyl)azetidin-3-ol], the IC50 was 126 nM in experiment [1] (setting [9]) and over 10000 nM in experiment [2] (setting [10]).

`Cc1ccnc(Cn2c(-c3ccc(CCN4CCNCC4)cc3Cl)nc3c(OC4(C)CC4)ncnc32)c1` [Example T528, 8-(2-chloro-4-(2-(piperazin-1-yl)ethyl)phenyl)-6-(1-methylcyclopropoxy)-9-((4-methylpyridin-2-yl)methyl)-9H-purine]: the IC50 in experiment [1] (setting [3]) is 398 nM; in experiment [2] (setting [4]) it was 7940 nM.

`CN1CCN(CCOc2ccc(-c3nc4c(OC5(C)CC5)ncnc4n3Cc3ccccc3)c(Br)c2)CC1` [Example H6, 9-benzyl-8-(2-bromo-4-(2-(4-methylpiperazin-1-yl)ethoxy)phenyl)-6-(1-methylcyclopropoxy)-9H-purine]: the values for the IC50 in experiment [1] (setting [7]) and in experiment [2] (setting [8]) were 63.1 nM and 5010 nM, respectively.

Regarding `CC1(Oc2ncnc3c2nc(-c2cccc(OCCCC(=O)O)c2Cl)n3Cc2cccc(Cl)c2)CC1` [Example T157, 4-(2-chloro-3-(9-(3-chlorobenzyl)-6-(1-methylcyclopropoxy)-9H-purin-8-yl)phenoxy)butanoic acid], the IC50 in experiment [1] (setting [3]) was 31.6 nM; in experiment [2] (setting [4]), over 10000 nM.

Regarding `Cc1ccnc(Cn2c(-c3ccc(S(C)(=O)=O)cc3Cl)nc3c(OC4(C)CC4)ncnc32)c1` [Example T16, 8-(2-chloro-4-(methylsulfonyl)phenyl)-6-(1-methylcyclopropoxy)-9-((4-methylpyridin-2-yl)methyl)-9H-purine], the IC50 in experiment [1] (setting [11]) was 794 nM; in experiment [2] (setting [12]), over 10000 nM.

Consider `CC1(Oc2ncnc3c2nc(-c2ccc(OCCN4CCNCC4)cc2Br)n3Cc2cc(Cl)ccn2)CC1` [Example T348, 8-(2-bromo-4-(2-(piperazin-1-yl)ethoxy)phenyl)-9-((4-chloropyridin-2-yl)methyl)-6-(1-methylcyclopropoxy)-9H-purine], for which the IC50 in experiment [1] (DLD-1, first proliferation column (c5), taken as DLD-1 BRCA2-/-, read-out: POLQ PD Prolif Lumin (converted)) was 126 nM; in experiment [2] (DLD-1, second proliferation column (c6), taken as DLD-1 BRCA2 wt, read-out: POLQ PD Prolif Lumin (converted)) it was over 10000 nM.

Consider `CC1(Oc2ncnc3c2nc(-c2ccc(OCCCN4CC(O)C4)cc2Cl)n3Cc2ccccc2)CC1` [Example H17, 1-(3-(4-(9-benzyl-6-(1-methylcyclopropoxy)-9H-purin-8-yl)-3-chlorophenoxy)propyl)azetidin-3-ol], for which the IC50 in experiment [1] (setting [7]) was 63.1 nM; in experiment [2] (setting [8]), 2000 nM.

`Cc1c(-c2nc3c(OC4(C)CC4)ncnc3n2Cc2ccccc2)ccnc1OCCN1CCNCC1` [Example G14, 9-benzyl-8-(3-methyl-2-(2-(piperazin-1-yl)ethoxy)pyridin-4-yl)-6-(1-methylcyclopropoxy)-9H-purine]: the IC50 was 794 nM in experiment [1] (setting [7]) and 7940 nM in experiment [2] (setting [8]).

As to `Cc1ccnc(Cn2c(-c3ccc(OCC4(O)CC4)cc3Cl)nc3c(OC4(C)CC4)ncnc32)c1` [Example T197, 1-((3-chloro-4-(6-(1-methylcyclopropoxy)-9-((4-methylpyridin-2-yl)methyl)-9H-purin-8-yl)phenoxy)methyl)cyclopropan-1-ol], the IC50 in experiment [1] (setting [3]) is 251 nM; in experiment [2] (setting [4]), over 10000 nM.

Take `CC1(Oc2ncnc3c2nc(-c2ccc(OCCCO)cc2Cl)n3Cc2cc(Cl)ccn2)CC1` [Example T64, 3-(3-chloro-4-(9-((4-chloropyridin-2-yl)methyl)-6-(1-methylcyclopropoxy)-9H-purin-8-yl)phenoxy)propan-1-ol]: the IC50 is 158 nM in experiment [1] (setting [11]) and over 10000 nM in experiment [2] (setting [12]).
